# US7220746B2, “Pyrrolidinedione substituted piperidine-phthalazones as PDE4 inhibitors” (Altana Pharma AG, priority 2002, dated 2007)
# Tested on: PDE4 activity (cytosol from human neutrophils)
# Test: Inhibition of PDE4 activity
# Assay type: biochemical
# Parameters: unit not given here
# Settings: 0.5 μM cAMP, Motapizone 1 μM included to suppress PDE3
# Method: Method for Measuring Inhibition of PDE4 Activity
# PDE4 activity was determined as described by Thompson et al. (Adv Cycl Nucl Res 10: 69–92, 1979) with some modifications (Bauer and Schwabe, Naunyn-Schmiedeberg's Arch Pharmacol 311: 193–198, 1980). At a final assay volume of 200 μl (96well microliter plates) the assay mixture contained 20 mM Tris (pH 7.4), 5 mM MgCl2, 0.5 μM cAMP, [^3H]CAMP (about 30,000 cpm/assay), the test compound and an aliquot of cytosol from human neutrophils which mainly contains PDE4 activity as described by Schudt et al. (Naunyn-Schmiedeberg's Arch Pharmacol 344: 682–690, 1991); the PDE3-specific inhibitor Motapizone (1 μM) was included to suppress PDE3 activity originating from contaminating platelets. […]
# After preincubation for 5 min at 37° C., the reaction was started by the addition of substrate (cAMP) and the assays were incubated for further 15 min at 37° C. […] The columns were eluted with 2 ml of 30 mM ammonium formiate (pH 6.0) and the eluate was counted for radioactivity. Results were corrected for blank values (measured in the presence of denatured protein) which were below 5% of total radioactivity. […] The IC50-values for the compounds according to the invention for the inhibition of the PDE4 activity were determined from the concentration-inhibition curves by nonlinear-regression.
structure (smiles),measurement,value
"COc1ccc(C2=NN(C3CCN(C(=O)CN4C(=O)CCC4=O)CC3)C(=O)[C@@H]3CC=CC[C@H]23)cc1OC [Example 1, 1-(2-{4-[(4aS,8aR)-4-(3,4-Dimethoxy-phenyl)-1-oxo-4a,5,8,8a-tetrahydro-yl]-piperidin-1-yl}-2-oxo-ethyl)-pyrrolidine-2,5-dione]","Inhibition of PDE4 activity, −logIC50",10.66
